PubChem BioAssay (NCI)
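Test compounds were applied to cells in 96-well plates for 48 hours at 5 doses. The concentration for 50% growth inhibition is given as GI50. At the TGI there is no net growth.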

Experiments:
Assay in all cases: NCI anticancer screen, dose series, 48 h
TK-10 renal = system: TK-10 renal
NCI-H460 lung = system: NCI-H460 lung
MDA-MB-231 breast = system: MDA-MB-231 breast
A498 renal = system: A498 renal
A549 NSCLC = system: A549 NSCLC
SN12C renal = system: SN12C renal
HS 578T breast = system: HS 578T breast
HCC-2998 colon = system: HCC-2998 colon
SNB-75 CNS = system: SNB-75 CNS
IGROV1 ovarian = system: IGROV1 ovarian

Compound	GI50 (TK-10 renal) [µM]	TGI (TK-10 renal) [µM]	GI50 (NCI-H460 lung) [µM]	TGI (NCI-H460 lung) [µM]	GI50 (MDA-MB-231 breast) [nM]	TGI (MDA-MB-231 breast) [µM]	GI50 (A498 renal) [µM]	TGI (A498 renal) [µM]	GI50 (A549 NSCLC) [µM]	TGI (A549 NSCLC) [µM]	GI50 (SN12C renal) [nM]	TGI (SN12C renal) [µM]	GI50 (HS 578T breast) [µM]	TGI (HS 578T breast) [µM]	GI50 (HCC-2998 colon) [nM]	TGI (HCC-2998 colon) [µM]	GI50 (SNB-75 CNS) [µM]	TGI (SNB-75 CNS) [µM]	TGI (IGROV1 ovarian) [µM]	GI50 (IGROV1 ovarian) [µM]
NC(=NCCCC1(c2ccccc2)CCCC1)Nc1ccc(Cl)cc1	1.38	2.75	1.69	3.42	1600	3.14	1.75	3.29	1.89	3.61	1770	3.37	2.19	5.03	1660	3.08	1.07	2.31	–	–
COc1ccc2c(c1O)C(=O)C(CCC(=O)O)CC2 (centres undefined)	–	> 100	–	> 100	–	–	–	> 100	–	> 100	–	> 100	–	–	–	> 100	–	> 100	> 100	–
COc1c2c3ccccc3nc-2n(C)c2ccccc12	11.7	58.5	6.26	32.1	7030	40.4	10.1	24.8	14.3	> 100	7270	35.9	42	> 100	–	–	14.1	35.4	> 100	24.3
Nc1nc(Cl)cc(NCCCCCNc2cc(Cl)nc(N)n2)n1	–	> 100	–	> 100	–	–	–	–	–	> 100	–	> 100	–	–	–	> 100	–	> 100	> 100	–
C=CCCOC(=O)CO[N+](=O)[O-]	–	> 100	–	> 100	–	–	–	–	–	> 100	–	> 100	–	–	–	> 100	–	> 100	> 100	–
CCC(=O)C1(c2ccccc2)CCN(C)CC1	–	> 100	–	> 100	–	–	–	> 100	–	> 100	–	–	–	> 100	–	> 100	–	> 100	> 100	–
C=CCCCn1ccc2ccccc21	–	> 100	–	> 100	–	–	–	> 100	–	> 100	–	> 100	–	–	–	> 100	–	> 100	> 100	–
C#Cc1c(C)c(/C=C/C(C)=C/C=C/C(C)=C/C(=O)OC)n(C)c1C	–	> 100	–	> 100	–	–	–	–	–	> 100	–	–	–	–	–	–	–	> 100	> 100	–
CC(C)CC1C(=O)N2CCC[C@H]2C2(O)O[C@](NC(=O)C3C=C4c5cccc6[nH]c(Br)c(c56)C[C@H]4N(C)C3)(C(C)C)C(=O)N12 (some centres undefined)	5.06	> 100	6.6	> 100	–	> 100	3.21	> 100	4.72	> 100	10200	> 100	68.9	> 100	–	–	5.55	> 100	> 100	6.79
CCCCCCCCCCCCCCCCOCC(CN(C)CCN(C)C)OCCCCCCCCCCCCCCCC (centres undefined)	–	> 100	–	> 100	–	–	–	> 100	–	> 100	–	> 100	–	–	–	> 100	–	> 100	> 100	–
O=C(NCCc1ccccc1)C(c1ccccc1)(c1ccccc1)c1ccccc1	1.86	9.42	31.5	> 100	519	4.21	–	–	1.75	5.59	1800	5.96	3.88	23.7	–	–	> 100	> 100	70	28.8
CC1CN(c2ccc(Cl)cc2)CC(C)(C)OC(=O)O1 (centres undefined)	–	> 100	–	> 100	–	–	–	–	–	> 100	–	> 100	–	–	–	> 100	–	> 100	> 100	–
COc1ccc(/C=C/C(=O)C(C)(C)CN2CCCCC2)cc1	–	53.4	–	43.3	–	–	–	38.5	–	74.3	–	44.1	–	–	–	33.7	–	47.1	65.8	–
CC(=O)NC(CCCCN(Cc1ccccc1)C(=O)NCCCl)C(=O)NCc1ccccc1 (centres undefined)	–	–	–	> 100	–	–	–	–	–	> 100	–	> 100	–	–	–	> 100	–	> 100	> 100	–
COc1cc(Br)c(CC2(C#N)c3ccccc3C3C(N2C(=O)c2ccccc2)C3(Cl)Cl)cc1OC (centres undefined)	–	> 65.5	–	> 65.5	–	–	–	–	–	> 65.5	–	> 65.5	–	–	–	> 65.5	–	> 65.5	> 65.5	–
CC(/C=C/C(=O)c1sc(-n2nc(-c3ccccc3)cc2-c2ccccc2)nc1C)=C\c1ccccc1	–	–	–	> 100	–	–	> 100	> 100	–	> 100	–	> 100	–	–	–	> 100	28.4	–	> 100	–
CC(=O)[O-].CC(=O)[O-].O=C(N/N=C/c1cc(Cl)cc(Cl)c1O)c1ccncc1.[Ni+2]	–	> 100	–	> 100	–	–	–	> 100	–	> 100	–	> 100	–	–	–	> 100	–	> 100	> 100	–
CCOc1cc2ccc3c4cc(OC)c(OC)cc4cnc3c2cc1OCC	–	> 100	–	> 100	–	–	–	> 100	–	> 100	–	> 100	–	–	–	> 100	–	> 100	> 100	–
NCCCCCCCCn1c2c(c3ccccc3c1=O)C(=O)c1ccccc1-2	1.93	3.88	3.66	24.8	2120	5.73	3.48	15.8	8.93	50.8	3450	11.3	3.83	22.2	1890	3.75	7.65	26.8	–	–
C[N+](C)(C)CC(=O)N/N=C(\CCC(=O)NCCc1ccccc1)CC(=O)c1ccccc1	–	> 100	–	> 100	–	–	–	> 100	–	> 100	–	> 100	–	–	–	> 100	–	–	> 100	–
CCN(CC)c1ccc(C2CC(c3cc(OC)c(OC)c(OC)c3)=NN2)cc1 (centres undefined)	36	> 100	0.331	11.8	513	69.2	0.443	2.44	0.591	> 32.2	737	> 100	–	–	1150	> 27	0.372	–	> 25.1	0.327
